Test results taken from patent US20190350887A1, “INCREASING BIOAVAILABILITY OF IRON WITH AVENANTHRAMIDE 2c” (priority 2018, published 2019).

Tested on: Caco-2 cells
Assay: in vitro Caco-2 cell bioassay of iron bioavailability (ferritin formation)
Assay type: cell-based
Conditions: for effect on iron bioavailability: same testing conditions as avenanthramide 2c (FIG. 1)
Description: FIG. 1 is a graph illustrating the results of in vitro tests that were performed in order to predict the effect that avenanthramide 2c, avenanthramide 2p, and avenanthramide 2f would have on iron bioabsorption in humans. Specifically, an in vitro Caco-2 cell bioassay was used that accurately predicts how a compound will influence iron bioabsorption in humans. In these cells, the intracellular iron storage protein known as ferritin forms in direct proportion to cell iron uptake.
[…] The ferric chloride solution is administered to the cells by itself (as a control) and along with the compound(s) being tested to assess their effect iron bioavailability, as measured by the amount of ferritin formed in the cells—a sensitive and accurate measurement of cell iron uptake. The test protocol measures the total weight of cell protein and the total weight of ferritin produced by the cells in order to generate a weight ratio of ferritin to cell protein (in units of ng ferritin formed per mg cell protein). The ratios from the test samples are compared against a control sample wherein only ferric chloride is administered to the cells. Test samples with higher ferritin values (ng ferritin/mg cell protein) compared to the control indicate improvement or enhancement of iron bioavailability, whereas test samples with ferritin values approximately equal to (or within the margin of error) or less than the control indicates no effect on iron bioavailability or inhibition of iron bioavailability, respectively.

Compound | iron bioavailability (ferritin formation) compared with control (5 μM avenanthramide with 10 μM ferric chloride, control = ferric chloride only) | ferritin formation relative to control (20 μM avenanthramide with 10 μM ferric chloride) | ferritin formation, increase over the 5 μM sample (20 μM avenanthramide with 10 μM ferric chloride, relative to 5 μM sample) | ferritin value compared with control and lower concentrations (30 μM avenanthramide with 10 μM ferric chloride) | effect on iron bioavailability
O=C(/C=C/c1ccc(O)c(O)c1)Nc1ccc(O)cc1C(=O)O [avenanthramide 2c, 2-[[(E)-3-(3,4-dihydroxyphenyl)prop-2-enoyl]amino]-5-hydroxybenzoic acid] | more than double the control value | more than 3.5 times the control value | more than 1.5 factor | still above the values measured at 10 μM and 5 μM, and well above control | –
COc1cc(/C=C/C(=O)Nc2ccc(O)cc2C(=O)O)ccc1O [avenanthramide 2f, 5-hydroxy-2-[[(E)-3-(4-hydroxy-3-methoxyphenyl)prop-2-enoyl]amino]benzoic acid, reference compound] | – | – | – | – | negligible or zero effect
O=C(/C=C/c1ccc(O)cc1)Nc1ccc(O)cc1C(=O)O [avenanthramide 2p, 5-hydroxy-2-[[(E)-3-(4-hydroxyphenyl)prop-2-enoyl]amino]benzoic acid, reference compound] | – | – | – | – | negligible or zero effect
